Key:
Format in all cases: cell-based, human
DCs [1] = assay: Inhibition of MAPKs and PI3K/Akt activation before ACW stimulation of DCs; details: inhibitor 25 μM for 2 hours before ACW; for IL-12 production of DCs induced by ACW after inhibitor pretreatment: FIG. 13(B)
Experimental: To examine the signal transduction pathways involved in the effects of ACW on DC maturation, DCs were pretreated at 37° C. with ERK inhibitor PD98059 (25 μM), JNK inhibitor SP600125 (25 μM), p38 MAPK inhibitor SB203580 (25 μM) or PI3K/Akt inhibitor LY294002 (25 μM) for 2 hours before stimulation with ACW. After 2 days, phenotyping characteristics of DCs and IL-12 production in the supernatants of DCs were analyzed.

DCs [2] = assay: IL-12 production in culture supernatants of stimulated DCs; parameters: unit not given here; details: LPS; PBS 235.53±2.54; FIG. 9
Experimental: The preparation method of DCs was mainly prepared and modified from Lin et al, 2006. First, peripheral blood mononuclear cells (PBMCs) were obtained from 12 healthy donors by centrifugation with the Ficoll-Hypaque (Amersham Bioscience, Uppsala, Sweden) density gradient centrifugation. PBMCs were cultured in RPMI 1640 medium supplemented with 10% fetal calf serum, 1 mM L-glutamin, 100 μg/ml streptomycin and 100 U/ml penicillin for 2 hours. The nonadherent cells were removed, and the T cells were purified by nylon wool separation, as the source of mononuclear T lymphocytes. T cells were loaded into the column and the eluted nonadherent cell fraction was rich in T cells. As determined by FACS, the resulting cell population was 80% T cells with a high expression of CD3. The adherent cells were cultured for 6 days in RPMI 1640 medium with 50 ng/ml of granulocyte-macrophage colony-stimulating factor (GM-CSF) and interleukin-4 (IL-4). […] ImDCs were further treated with phosphate buffered saline (PBS), LPS (100 ng/ml) and different doses of ACW for an additional 2 days and then assessed by flow cytometry.
Levels of IL-12, IL-10, IFN-γ and IL-4 in the culture supernatants from DCs or T cells were evaluated by using highly sensitive human cytokine assay kits (R&D Systems, Minneapolis, USA) according to the manufacturer's instructions.

DCs [3] = assay: Polymyxin B test of CD86 and HLA-DR expression on induced DCs; details: DCs treated with polymyxin B, then LPS or ACW; FIG. 7
Experimental: Polymyxin B is an antibiotic used for inactivating potential LPS contamination when evaluating the activity of different agents on immune cells. Therefore, whether polymyxin B blocks the phenotypic maturation of ACW-induced DCs is determined. […] Accordingly, ACW is able to stimulate the maturation of DCs without LPS contamination.

Row | Compound | IL-12 production of DCs induced by ACW after inhibitor pretreatment (DCs [1]) | CD86 expression of the ACW-treated DCs after inhibitor pretreatment (DCs [1]; FIG. 13(A)) | concentration of IL-12 produced by DCs (DCs [2]) | expressions of CD86 and HLA-DR after polymyxin B treatment in advance (DCs [3])
1 | COc1cccc(-c2cc(=O)c3ccccc3o2)c1N [PD98059] | upregulates the IL-12 production |  |  | 
2 | C[S+]([O-])c1ccc(-c2nc(-c3ccncc3)c(-c3ccc(F)cc3)[nH]2)cc1 (centres unmarked) [SB203580] | significantly blocks the up-regulation of IL-12 production | inhibit CD86 expression |  | 
3 | lipopolysaccharide [LPS] |  |  | 698.45 | significantly inhibits the expressions of CD86 and HLA-DR

— patent publication US9241962B2, “Water extract of Antrodia camphorata for immunostimulatory effect and preparation method thereof” (Kaohsiung Medical University, priority 2009, dated 2016)
